Measured values reported in US10544154B2, “Opioid receptor antagonist prodrugs” (Nirsum Laboratories, Inc., priority 2017, dated 2020).

Columns and labels:
[1] = Plasma stability, human plasma (HPLC-MS); type: in vitro ADME; settings: 2 μM, 37° C.
Protocol: (§1) Plasma stability determination of the test compounds in rat, dog, cynomolgus monkey and human plasma is performed using HPLC-MS. For rat, incubations are carried out in 96-well polypropylene plates in 5 aliquots of 70 μL each (one for each time point). […] Five time points are analyzed (0, 15, 120, 480 and 1440 min). […] All incubations are performed in duplicates. The samples are analyzed by HPLC-MS. The percentage of parent compound remaining after incubation in plasma is determined.

[2] = Clinical observations for dogs in pharmacokinetic studies; type: in vivo, Beagle dogs; settings: 48 mg/kg DeepIM
Method in brief: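 Body weight checked weekly and used on dosing morning to set volume. Formulation (400 mg base equivalents/ml, sesame oil with 1% benzyl alcohol, unless otherwise specified) given by deep intramuscular injection into thigh muscle under propofol (6 mg/kg IV) sedation, vehicle into the opposite side; sites may rotate on repeat dosing.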

[3] = Plasma stability, dog plasma (HPLC-MS); type: in vitro ADME; settings: 2 μM, 37° C.
Protocol: Plasma stability determination of the test compounds in rat, dog, cynomolgus monkey and human plasma is performed using HPLC-MS. For rat, incubations are carried out in 96-well polypropylene plates in 5 aliquots of 70 μL each (one for each time point). […] Five time points are analyzed (0, 15, 120, 480 and 1440 min). For dog, monkey and human, test compounds (2 μM, final solvent concentration 1%) were also incubated at 37° C. and analyzed at five time points (0, 10, 30, 60 and 120 min). All incubations are performed in duplicates. The samples are analyzed by HPLC-MS. The percentage of parent compound remaining after incubation in plasma is determined.

[4] = Liver S9 fraction stability, dog; type: in vitro ADME; settings: 2 μM, 1.0 mg/ml S9 protein, 37° C.
Protocol: (§2) Liver S9 fraction stability determination of the test compounds in dog, cynomolgus monkey and human is performed using HPLC-MS. Test compound (2 μM, 0.1% DMSO, 1% Methanol final concentration) was assessed for stability in a 50 μl phosphate buffer containing 1.0 mg/ml S9 protein from each of the three species and 5 mM D-saccharic acid-1, 4-lactone. Samples were incubated at 37° C. for 60 minutes and the % compound remaining was assessed.

[5] = Plasma stability, cynomolgus monkey plasma (HPLC-MS); type: in vitro ADME; settings: 2 μM, 37° C., 0 min
Protocol: as §1

[6] = Liver S9 fraction stability, human; type: in vitro ADME; settings: 2 μM, 1.0 mg/ml S9 protein, 37° C.
Protocol: as §2

[7] = Liver S9 fraction stability, cynomolgus monkey; type: in vitro ADME; settings: 2 μM, 1.0 mg/ml S9 protein, 37° C.
Protocol: as §2

[8] = Plasma stability, rat plasma (HPLC-MS); type: in vitro ADME; settings: 10 μM, 37° C.
Method in brief: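 Read-out: percent parent compound remaining, by HPLC-MS, duplicate incubations. Dog/monkey/human: 2 μM test compound, 1% solvent final, 37 °C, time points 0, 10, 30, 60, 120 min. Rat: time points 0, 15, 120, 480, 1440 min.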

Q: With `C=C1CC[C@@]2(O)C3Cc4ccc(OCOC(=O)OCCCCCCCCCCCC)c5c4[C@@]2(CCN3CC2CC2)[C@H]1O5` [Compound 24, (((4aS,7aS,12bS)-3-(cyclopropylmethyl)-4a-hydroxy-7-methylene-2,3,4,4a,5,6,7,7a-octahydro-1H-4,12-methanobenzofuro[3,2-e]isoquinolin-9-yl)oxy)methyl dodecyl carbonate] as the compound, how does the “% remaining at time point in minutes, 0 min” value ([1]; 0 min) read?
A: The value was 100%.

Q: What about the “% remaining at time point in minutes, 15 min” value ([1]; 15 min) of the same compound?
A: Its value is 94%.

Q: And the BT ([2]; dog D1501, 24 hr)?
A: The BT was 38.8.

Q: What about the BT ([2]; dog D1501, 96 hr) of the same compound?
A: Its BT is “limb/BT: 39.2”.

Q: And the BT ([2]; dog D1501, 120 hr)?
A: The BT was 39.2.

Q: What about the BT ([2]; dog D1501, 144 hr) of the same compound?
A: The BT was 39.6.

Q: And the BT ([2]; dog D1501, 192 hr)?
A: The BT was “calf/BT: 39.0”.

Q: And the BT ([2]; dog D1501, 216 hr)?
A: Its BT is 8 * 5 cm/BT: 39.0.

Q: What about the BT ([2]; dog D1501, 240 hr) of the same compound?
A: The BT was 8 * 5 cm/BT: 39.0.

Q: And the BT ([2]; dog D1501, 264 hr)?
A: The BT was 6 * 5 cm/BT: 38.9.

Q: What about the BT ([2]; dog D1501, 288 hr) of the same compound?
A: The BT was 6 * 5 cm/BT: 38.9.

Q: What about the BT ([2]; dog D1501, […]) of the same compound?
A: The BT was 39.6.

Q: And the BT ([2]; dog D1502, 96 hr)?
A: The BT was “groin/red/BT: 38.3”.

Q: What about the BT ([2]; dog D1502, 120 hr) of the same compound?
A: Its BT is “groin/red/BT: 38.7”.

Q: And the BT ([2]; dog D1502, 144 hr)?
A: Its BT is “groin/red/BT: 38.3”.

Q: And the BT ([2]; dog D1502, 192 hr)?
A: The BT was “groin/red/BT: 38.5”.

Q: And the BT ([2]; dog D1502, 216 hr)?
A: Its BT is “groin/red/BT: 38.4”.

Q: What about the BT ([2]; dog D1502, 240 hr) of the same compound?
A: The BT was “leg/red/BT: 38.9”.

Q: And the BT ([2]; dog D1502, 264 hr)?
A: Its BT is “leg/red/BT: 38.3”.

Q: And the BT ([2]; dog D1502, 288 hr)?
A: Its BT is “leg/red/BT: 38.5”.

Q: And the BT ([2]; dog D1502, […])?
A: The BT was “groin/red/BT: 38.4”.

Q: And the BT ([2]; third dog (head prints D1502), 144 hr)?
A: The BT was 8 * 8 cm/BT: 39.5.

Q: And the BT ([2]; third dog (head prints D1502), 192 hr)?
A: The BT was 8 * 8 cm/BT: 38.0.

Q: And the BT ([2]; third dog (head prints D1502), 216 hr)?
A: Its BT is 8 * 8 cm/BT: 38.8.

Q: What about the BT ([2]; third dog (head prints D1502), 240 hr) of the same compound?
A: Its BT is 8 * 8 cm/BT: 39.2.

Q: And the BT ([2]; third dog (head prints D1502), 264 hr)?
A: Its BT is 8 * 8 cm/BT: 38.9.

Q: What about the BT ([2]; third dog (head prints D1502), 288 hr) of the same compound?
A: The BT was 8 * 8 cm/BT: 38.8.

Q: What about the BT ([2]; third dog (head prints D1502), […]) of the same compound?
A: The BT was 8 * 8 cm/BT: 39.3.

Q: What about the “% remaining at time point in minutes, 0 min” value [3] of the same compound?
A: Its value is 100%.

Q: What about the “Liver S9 Fraction Stability, % remaining at 60 minutes, Dog” value [4] of the same compound?
A: The value was 3.6%.

Q: What about the “% remaining at time point in minutes, 0 min” value [5] of the same compound?
A: Its value is 100%.

Q: And the “Liver S9 Fraction Stability, % remaining at 60 minutes, Human” value [6]?
A: The value was 3.5%.

Q: And the “Liver S9 Fraction Stability, % remaining at 60 minutes, Monkey” value [7]?
A: Its value is 3%.

Q: And the “% remaining at time point in minutes, 0 min” value ([8]; 0 min)?
A: Its value is 100%.

Q: And the “% remaining at time point in minutes, 15 min” value ([8]; 15 min)?
A: The value was 32%.

Q: And the “% remaining at time point in minutes, 480 min” value ([8]; 480 min)?
A: Its value is 8.2%.

Q: What about the “% remaining at time point in minutes, 1440 min” value ([8]; 1440 min) of the same compound?
A: The value was 3%.
